Assay results published in patent US12590100B2, “Tetrahydro-spiroindoline-pyrrolopyrrole-triones inhibitors of the NRF2-β-TrCP interaction for use in the treatment of fatty liver disease” (Universidad Autonoma De Madrid, priority 2021, dated 2026).

Tests used:
[1] = system: NRF2; assay: NRF2/HO-1 induction in Keap1−/− versus Keap1+/+ MEFs; format: cell-based, mouse; details: PHAR 10 μM, 8 h
Protocol: FIG. 5. PHAR-mediated NRF2 activation is independent of KEAP1 and is responsible for the increase in the expression of its targets. (A-D) Serum-deprived MEFs originating from wild-type (WT) or KEAP1 null (Keap1−/−) mice were treated with 10 μM of PHAR for the indicated times. 0.1% DMSO was used as a vehicle. A), representative immunoblots of NRF2, HO1, KEAP1, LAMINB, and GAPDH as loading controls. B) and C), densitometric analysis of NRF2 and HO1 protein levels of the representative immunoblots of (A), expressed as a ratio of NRF2/LAMINB or HO1/GAPDH. The data is depicted as means±SEM (n=3). Statistical analysis was performed with two-way ANOVA followed by the Bonferroni test to check inter-group differences. D), the mRNA levels of Hmox-1, Nqo1, Aox1, Gc1c, and Gc1m were determined after 8 h of 10 μM PHAR by means of qRT-PCR and normalized by means of average Gapdh, Tbp, and β-actin. The data is depicted as mean±SEM (n=3). […] F) and G), densitometric analysis of NRF2 and HO1 protein levels of the representative immunoblots of (E), expressed as a ratio of NRF2/LAMINB or HO1/GAPDH. […] H), the mRNA levels of Hmox-1, Nqo1, Aox1, Gclc, and Gclm were determined after 8 h of 10 μM PHAR by means of qRT-PCR and normalized by means of average Gapdh, Tbp, and β-actin. […]

[2] = system: Raw264.7 cells; assay: Inflammatory response in LPS-stimulated Raw264.7 cells; format: cell-based, mouse; details: Raw264.7, PHAR 10 μM 8 h pretreatment
Protocol: FIG. 7. […] Serum-deprived Raw264.7 cells were pretreated with 10 μM of PHAR for 8 h. 0.1% DMSO was used as a vehicle. After that period of time, the cells were treated with 100 ng/ml of LPS for the indicated times. A), representative immunoblots of NRF2, HO1, p65, pre-IL1β, COX2, NOS2, and GAPDH as a loading control. The black arrow tip marks the specific band of p65 and NOS2. B), densitometric analysis of HO1 and NRF2 protein levels of the representative immunoblots of (A), expressed as a ratio of protein/GAPDH levels. The data is depicted as means±SEM (n=3). Statistical analysis was performed with two-way ANOVA followed by the Bonferroni test to compare inter-group differences. ***p<0.001 vs LPS. C), Densitometric analysis of pre-IL1β, COX2, and NOS2 protein levels of the representative immunoblots of (A), expressed as a ratio of protein/GAPDH levels. The data is depicted as means±SEM (n=3). Statistical analysis was performed with two-way ANOVA followed by the Bonferroni test to compare inter-group differences. ***p<0.001 vs. LPS. D) and E), the mRNA levels of Il1β, Cox2, Nos2, Il6, and Tnfα were determined by means of qRT-PCR and normalized by means of average Gapdh, Tbp, and β-actin. The data is depicted as mean±SEM (n=3). Statistical analysis was performed with two-way ANOVA followed by the Bonferroni test to check inter-group differences. ***p<0.001 vs. LPS. […] The cells were then stimulated with LPS (100 ng/ml, 1, 2, or 4 h) to trigger an inflammatory response.

SMILES: O=C1[C@@H]2[C@H](Cc3c[nH]c4ccccc34)N[C@]3(C(=O)Nc4ccc(Cl)cc43)[C@@H]2C(=O)N1c1ccc2c(c1)OCCO2 [PHAR]
- mRNA levels of other NRF2 targets in Keap1−/− compared with Keap1+/+ MEFs [1]: The same result was obtained
- Il6 and Tnfa induction ([2]; LPS 100 ng/ml): significantly milder induction
- NRF2 and HO-1 levels ([2]; LPS 100 ng/ml): increased NRF2 and HO-1 levels
- inflammatory parameters by immunoblot (pre-IL1β, COX2, NOS2) or mRNA (Il1β, Cox2, Nos2) ([2]; LPS 100 ng/ml 4 h): mitigated the increase in inflammatory parameters
